Read-outs that look alike come from different tables or passages of the source. Where no end group is shown, it is not given here.
Assays:
[1] = tested on: MDA-MB-435 cells; assay: MDA-MB-435 cell spreading on matrix proteins, inhibition by soluble peptide; format: cell-based, human; settings: 10 μM peptide 678 (FIG. 4A)
Method: FIGS. 4A and 4B are graphs illustrating the inhibition of breast carcinoma cell spreading on matrix proteins by peptide 678. […] Cell spreading is presented as mean±SD, n=3. Panel B: Inhibition of MDA-MB-435 cell attachment to surfaces coated with 10 μM peptide 678 (●) or laminin peptide GD6 (◯) was measured in the presence of the indicated concentrations of peptide 678 added in solution.
(§1) Adhesion assays of cells other than small cell lung carcinoma (SCLC)-Adhesion was measured on polystyrene or glass substrates coated with peptides or proteins as previously described (Guo et al., 1992). Peptides dissolved in PBS at 0.4 to 50 μM were incubated in polystyrene microliter plate wells overnight at 4° C. The wells were washed 3 times with distilled water. Adsorbed peptide was quantified using the BCA assay (Pierce Chemical) measuring absorbance at 570 and 630 nm as described by the supplier's protocol. The assay for adsorption was calibrated using purified peptide in solution as a standard. After blocking with 1% BSA in Dulbecco's PBS, adhesion assays were performed by adding cells suspended in DMEM (BAE cells) or medium 199 (human cells) containing 1 mg/ml BSA. Cell attachment and spreading was quantified microscopically.

[2] = tested on: BAE cells
Method: Direct adhesion of BAE cells to the adsorbed peptides or uncoated substrate (control) are presented as mean±SD, n=3. […] Two flasks of BAE cells were grown to confluence. One flask was harvested and replated in fresh medium at 25% confluency. Fresh medium was added at the same time to the second flask. After 16 h, cells from both flasks were dissociated using EDTA and adhesion was measured on substrates coated with 40 μg/ml TSP1, 10 μg/ml vitronectin, 20 μg/ml plasma fibronectin, or 5 μg/ml type I collagen. The percent spread cells after 60 min is presented as mean±SD, n=3 for a representative experiment.
Results are presented as mean±SD, n=3. […] The percent spread cells was determined at 60 min.

[3] = tested on: HUVEC; assay: HUVEC spreading on coated substrates; format: cell-based, human; settings: for percent spread HUVEC on immobilized substrate: data not shown
Method: FIGS. 14A, 14B and 14C display α3β1 and αvβ3 integrin-mediated spreading of endothelial cells on thrombospondin-1. […] Results are expressed as percent of the response for untreated cells, mean±S.D., n=3.
as §1

[4] = tested on: MDA-MB-435 breast carcinoma cells; assay: Inhibition of MDA-MB-435 cell adhesion to immobilized peptide 678 (microscopic adhesion assay); format: cell-based, human
Method: as §1

IC50 ([4]; Table 3, 5 μM peptide 678, read-out: IC50 (μM), inhibition of MDA-MB-435 cell adhesion to immobilized peptide 678): 3.5 µM | IC50 ([4]; microscopic adhesion assay, polystyrene coated with 5 μM peptide 678, peptides in solution, read-out: Inhibition of peptide 678 (IC50)): 3.5 µM
Sequence: FQGVLQNVRFVF [Peptide 678]
inhibition of MDA-MB-435 spreading on TSP1 and murine laminin-1/entactin [1]: strongly inhibited | inhibition of MDA-MB-435 spreading on fibronectin or type IV collagen [1]: did not inhibit | inhibition of BAE cell spreading on fibronectin or vitronectin substrates [2]: did not inhibit | inhibition of BAE spreading on fibronectin ([2]; 30 μM (FIG. 12)): did not inhibit | inhibition of density-dependent BAE spreading on intact TSP1 and the TSP1 peptide ([2]; peptide added in solution): inhibited | endothelial cell attachment on immobilized peptide ([2]; peptides adsorbed at 10 μM (FIG. 11A)): attached specifically | inhibition of HUVEC spreading on vitronectin [3]: not significantly inhibited | inhibition of HUVEC spreading on TSP1 ([3]; 20 μM peptide 678 (FIG. 14B)): 70±7% | percent spread HUVEC on immobilized substrate ([3]; confluent cells): 3±1% | percent spread HUVEC on immobilized substrate ([3]; sparse cultures): 12±3%
